Assay results: patent publication US9522914B2, “Azole derivative” (TAISHO PHARMACEUTICAL CO., LTD, priority 2011, dated 2016)

Target: Human V1b receptor (Homo sapiens (Human), UniProt P47901)
Assay: Binding Test for V1b Receptor ([3H]AVP, crude membrane preparation of 293FT cells)
Settings: inhibition of [3H]AVP binding (0.4 to 1 nmol/L), room temperature, 60 minutes
In short: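 Crude membranes from 293FT cells transiently expressing human V1b, incubated with [3H]AVP (0.4 to 1 nmol/L) and compound (0.01 nmol/L–1 μmol/L final) in Tris pH 7.4 with MgCl2 and 0.1% BSA, 60 min at room temperature. Bound label collected by filtration. Nonspecific binding defined with unlabeled AVP; IC50 from dose-response curve.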

Human V1b receptor, sequence (P47901 whole entry): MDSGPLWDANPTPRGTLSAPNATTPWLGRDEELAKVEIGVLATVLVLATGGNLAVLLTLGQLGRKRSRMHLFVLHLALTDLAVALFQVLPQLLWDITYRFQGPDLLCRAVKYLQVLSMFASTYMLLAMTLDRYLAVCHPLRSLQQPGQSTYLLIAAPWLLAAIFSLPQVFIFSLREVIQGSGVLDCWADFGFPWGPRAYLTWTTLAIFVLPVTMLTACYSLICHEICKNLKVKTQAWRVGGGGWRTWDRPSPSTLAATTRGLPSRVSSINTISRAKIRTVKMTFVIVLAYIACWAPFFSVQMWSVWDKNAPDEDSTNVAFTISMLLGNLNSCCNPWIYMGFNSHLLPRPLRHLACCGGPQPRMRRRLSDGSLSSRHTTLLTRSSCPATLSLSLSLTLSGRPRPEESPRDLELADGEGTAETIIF

| Compound | IC50 [nM] |
| --- | --- |
| COc1cccc(-c2nc(-c3ccc(CCN4CCC(C(N)=O)CC4)cc3)nn2CC(=O)NC(C)C)c1 [Example B-34, 1-[2-(4-{5-(3-methoxyphenyl)-1-[2-oxo-2-(propan-2-ylamino)ethyl]-1H-1,2,4-triazol-3-yl}phenyl)ethyl]piperidine-4-carboxamide] | 100 to 1000 |
| COc1cccc(-c2nc(-c3ccc(CCN4CCC(NC(C)=O)CC4)cc3)nn2CC(=O)NC(C)C)c1 [Example B-35, 2-[3-(4-{2-[4-(acetylamino)piperidin-1-yl]ethyl}phenyl)-5-(3-methoxyphenyl)-1H-1,2,4-triazol-1-yl]-N-(propan-2-yl)acetamide] | 100 to 1000 |
| COc1cccc(-c2nc(-c3ccc(CCN4CCC(C)(O)CC4)cc3)nn2CC(=O)NC(C)C)c1 [Example B-36, 2-[3-{4-[2-(4-hydroxy-4-methylpiperidin-1-yl)ethyl]phenyl}-5-(3-methoxyphenyl)-1H-1,2,4-triazol-1-yl]-N-(propan-2-yl)acetamide] | 10 to 100 |
| COc1cccc(-c2nc(-c3ccc(CCN4CC5(CCOCC5)C4)cc3)nn2CC(=O)NC(C)C)c1 [Example B-37, 2-[5-(3-methoxyphenyl)-3-{4-[2-(7-oxa-2-azaspiro[3.5]non-2-yl)ethyl]phenyl}-1H-1,2,4-triazol-1-yl]-N-(propan-2-yl)acetamide] | < 10 |
| COc1cccc(-c2nc(-c3ccc(CCN4CCC(C(F)(F)F)CC4)cc3)nn2CC(=O)NC(C)C)c1 [Example B-38, 2-[5-(3-methoxyphenyl)-3-(4-{2-[4-(trifluoromethyl)piperidin-1-yl]ethyl}phenyl)-1H-1,2,4-triazol-1-yl]-N-(propan-2-yl)acetamide] | 10 to 100 |
| COc1cccc(-c2nc(-c3ccc(CCN4CCC(F)CC4)cc3)nn2CC(=O)NC(C)C)c1 [Example B-39, 2-[3-{4-[2-(4-fluoropiperidin-1-yl)ethyl]phenyl}-5-(3-methoxyphenyl)-1H-1,2,4-triazol-1-yl]-N-(propan-2-yl)acetamide] | 10 to 100 |
| COc1cccc(-c2nc(-c3ccc(CCN4CCC(F)(F)CC4)cc3)nn2CC(=O)NC(C)C)c1 [Example B-40, 2-[3-{4-[2-(4,4-difluoropiperidin-1-yl)ethyl]phenyl}-5-(3-methoxyphenyl)-1H-1,2,4-triazol-1-yl]-N-(propan-2-yl)acetamide] | 10 to 100 |
| COc1cccc(-c2nc(-c3ccc(CCN4C(C)COCC4C)cc3)nn2CC(=O)NC(C)C)c1 (stereo not shown) [Example B-41, 2-[3-{4-[2-(3,5-dimethylmorpholin-4-yl)ethyl]phenyl}-5-(3-methoxyphenyl)-1H-1,2,4-triazol-1-yl]-N-(propan-2-yl)acetamide] | 10 to 100 |
| COc1cccc(-c2nc(-c3ccc(CCN4CC5(COC5)C4)cc3)nn2CC(=O)NC(C)C)c1 [Example B-42, 2-[5-(3-methoxyphenyl)-3-{4-[2-(2-oxa-6-azaspiro[3.3]hept-6-yl)ethyl]phenyl}-1H-1,2,4-triazol-1-yl]-N-(propan-2-yl)acetamide] | < 10 |

Second part, the compound after the results:

| IC50 [nM] | Compound |
| --- | --- |
| 21 | CC(C)NC(=O)Cc1nn(-c2ccc(CCN3CCCCC3)cc2)cc1-c1cccc(Cl)c1 [Example C-01, 2-[4-(3-chlorophenyl)-1-{4-[2-(piperidin-1-yl)ethyl]phenyl}-1H-pyrazol-3-yl]-N-(propan-2-yl)acetamide] |
| 13 | CC(C)NC(=O)Cc1cn(-c2ccc(CCN3CCCCC3)cc2)nc1-c1cccc(Cl)c1 [Example C-02, 2-[3-(3-chlorophenyl)-1-{4-[2-(piperidin-1-yl)ethyl]phenyl}-1H-pyrazol-4-yl]-N-(propan-2-yl)acetamide] |
| 8.6 | CC(C)NC(=O)Cc1cn(-c2ccc(CCN3CCOCC3)cc2)nc1-c1cccc(Cl)c1 [Example C-03, 2-[3-(3-chlorophenyl)-1-{4-[2-(morpholin-4-yl)ethyl]phenyl}-1H-pyrazol-4-yl]-N-(propan-2-yl)acetamide] |
| 10 to 100 | CC(C)NC(=O)Cc1cn(-c2ccc(CCN3CC4(COC4)C3)cc2)nc1-c1cccc(Cl)c1 [Example C-04, 2-[3-(3-chlorophenyl)-1-{4-[2-(2-oxa-6-azaspiro[3.3]hept-6-yl)ethyl]phenyl}-1H-pyrazol-4-yl]-N-(propan-2-yl)acetamide] |
